Test results published in article PMC11073699, “Odorant receptors for floral- and plant-derived volatiles in the yellow fever mosquito, Aedes aegypti (Diptera: Culicidae)” (PLOS ONE, 2024).
“And” between values parts separate entries of the source, which are not always exact repeats. Equal values may be shown once.

Key:
[1] = target: T1, AaegOR8 (Aedes aegypti, UniProt Q16MN0); experiment: Two-electrode voltage clamp of Xenopus laevis oocytes expressing AaegOR8/Orco (blends, unitary compounds, concentration-response); format: cell-based; settings: Alcohols 2 unitary compounds
T1 sequence (Q16MN0 32-422): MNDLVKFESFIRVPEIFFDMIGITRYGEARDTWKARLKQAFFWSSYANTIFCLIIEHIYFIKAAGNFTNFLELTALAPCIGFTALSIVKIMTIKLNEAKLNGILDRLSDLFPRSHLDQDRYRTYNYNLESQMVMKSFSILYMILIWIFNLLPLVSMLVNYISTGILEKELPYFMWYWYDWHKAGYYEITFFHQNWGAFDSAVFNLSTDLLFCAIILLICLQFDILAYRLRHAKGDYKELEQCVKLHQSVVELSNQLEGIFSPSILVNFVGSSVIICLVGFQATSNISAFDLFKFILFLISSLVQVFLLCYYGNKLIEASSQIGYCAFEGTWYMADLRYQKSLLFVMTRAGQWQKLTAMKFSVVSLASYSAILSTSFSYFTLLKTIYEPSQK
T1 sequence (Q178U6 1-478 partner): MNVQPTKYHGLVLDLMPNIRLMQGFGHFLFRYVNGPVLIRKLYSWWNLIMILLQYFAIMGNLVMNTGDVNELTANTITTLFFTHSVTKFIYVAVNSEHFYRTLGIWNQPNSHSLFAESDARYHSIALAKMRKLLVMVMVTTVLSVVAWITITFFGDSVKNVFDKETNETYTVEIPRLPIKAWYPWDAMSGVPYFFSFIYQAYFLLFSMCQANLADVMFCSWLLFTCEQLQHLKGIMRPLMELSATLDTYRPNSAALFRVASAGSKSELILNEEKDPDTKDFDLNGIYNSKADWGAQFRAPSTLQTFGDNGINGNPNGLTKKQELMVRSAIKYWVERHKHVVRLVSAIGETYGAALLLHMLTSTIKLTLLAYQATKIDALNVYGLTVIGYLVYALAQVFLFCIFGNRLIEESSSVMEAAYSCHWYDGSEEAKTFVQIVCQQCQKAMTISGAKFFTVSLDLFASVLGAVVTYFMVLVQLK
Description: (§1) The coding regions of ten AaegOR genes of interest (S3 File) and AaegOrco were synthesized by Twist Bioscience (San Francisco, CA, USA) and cloned into the pENTR plasmid. The Gateway LR directional cloning system (Invitrogen Corp., Carlsbad, CA, USA) was utilized to subclone AaegOR coding regions into the pSP64t-RFA oocyte expression plasmid. Plasmids were purified using the GeneJet Plasmid Miniprep Kit (ThermoFisher Scientific, Waltham, MA, USA). Purified plasmids were sequenced in both directions to confirm coding regions.
(§2) Chemical compounds (S6 File) used in the deorphanization of AaegORs were purchased from Acros Organics (Morris, NJ, USA), Alfa Aesar (Ward Hill, MA, USA), and ThermoFisher Scientific (Waltham, MA, USA) at the highest purity available. Compounds were stored as 1M stocks in 100% DMSO. Serial dilutions of each compound were prepared in 10% DMSO and blended by chemical class.
(§3) pSP64t-RFA: AaegOR clones were linearized using Xbal, and cRNAs were synthesized using the mMESSAGE mMACHINE ® SP6 kit (Life Technologies, Carlsbad, CA, USA). Xenopus laevis stage V-VII oocytes purchased from Xenopus1 (Dexter, MI, USA) were stored at 18°C in Incubation medium (ND96 96 with 5% dialyzed horse serum, 50μg/mL gentamycin, 100μg/mL streptomycin, 100μg/mL penicillin, and 550μg/mL sodium pyruvate). 30nL of cRNA was injected into multiple oocytes using a microinjection syringe pump (World Precision Instruments, Sarasota, FL, USA) maintained at 18°C for 48–72 hrs. Odorant blends were perfused across individual oocytes for 10–15 seconds, held at a resting membrane potential of -80 mV using an OC-725C oocyte clamp (Warner Instruments, LLC, Hamden, CT, USA). Induced currents were measured indirectly using the two-electrode voltage clamp technique (TEVC). Following each stimulus, currents were allowed to return to baseline before further stimulation. Data was captured using the Digidata 1550 B digitizer and PClamp10 software (Molecular Devices, San Jose, CA, USA). Concentration-response curves were generated by perfusing unitary odorants over oocytes at increasing concentrations from [10^-3M] to [10^-9M]. Data were analyzed using GraphPad Prism 8 (GraphPad Software Inc., La Jolla, CA, USA). At least two biological replicates were conducted at each concentration and for each compound. Data for at least seven oocytes responding to each compound was analyzed (S7 File).

[2] = target: T2, AaegOR15 (Aedes aegypti, UniProt A0A6B9QIR2); experiment: Two-electrode voltage clamp of Xenopus laevis oocytes expressing AaegOR15/Orco (blends, unitary compounds, concentration-response); format: cell-based; settings: for Raw data (Responses in nA), compounds of blend Alcohols 2: individual oocytes 1-10 (replicates); for response of OR15 to unitary compounds: individual compounds; for Raw Data, concentration-response: no unit printed in this section (nA in the sections above); for Raw data (Responses in nA), phenethyl propionate versus 1-hexanol: separate set of 7 oocytes (replicates)
T2 sequence (A0A6B9QIR2 1-390): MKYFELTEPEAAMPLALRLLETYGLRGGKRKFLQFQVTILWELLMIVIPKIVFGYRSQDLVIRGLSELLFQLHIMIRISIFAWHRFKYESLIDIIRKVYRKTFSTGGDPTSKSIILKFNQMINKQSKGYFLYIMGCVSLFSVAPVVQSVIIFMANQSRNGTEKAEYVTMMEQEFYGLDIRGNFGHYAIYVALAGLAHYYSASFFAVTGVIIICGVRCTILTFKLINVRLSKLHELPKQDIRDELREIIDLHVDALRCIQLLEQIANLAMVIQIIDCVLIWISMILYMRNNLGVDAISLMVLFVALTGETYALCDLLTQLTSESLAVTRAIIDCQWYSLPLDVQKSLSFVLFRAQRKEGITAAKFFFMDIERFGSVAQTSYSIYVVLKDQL
T2 sequence (Q178U6 1-478 partner): T1 sequence (Q178U6 1-478 partner)
Description: as §1, §2, §3

[3] = unitary compounds of Alcohols 2
[4] = AaegOR15/Orco expressing oocytes, TEVC

Row | SMILES | Raw data (Responses in nA) Oocyte 1 [1] [nA] | Raw data (Responses in nA) Oocyte 2 [1] [nA] | Raw data (Responses in nA) Oocyte 3 [1] [nA] | Raw data (Responses in nA) Oocyte 4 [1] [nA] | Raw data (Responses in nA) Oocyte 5 [1] [nA] | Raw data (Responses in nA) Oocyte 6 [1] [nA] | Raw data (Responses in nA) Oocyte 7 [1] [nA] | Raw data (Responses in nA) Oocyte 8 [1] [nA] | Raw data (Responses in nA), compounds of blend Alcohols 2 [2, 3] | further results
1 | C[C@@H]1CC[C@H]2C(C)(C)[C@H]3C[C@@]12CC[C@@]3(C)O [Cedrol] | 0.0 | 0.0 | 0.0 | 0.0 | 0.0 | 0.0 | 0.0 | 0.0 | 0.0 nA (3×) and 5.0 nA (2×) and 10.0 nA (3×) and 25.0 nA and 20.0 nA | –
2 | OC1CCCCC1 [cyclohexanol] | 0.0 | 0.0 | 0.0 | 0.0 | 0.0 | 0.0 | 0.0 | 0.0 | 5.0 nA and 10.0 nA and 30.0 nA and 55.0 nA (2×) and 0.0 nA and 40.0 nA (2×) and 80.0 nA and 35.0 nA | –
3 | CCC/C=C/C=O [trans-2-hexenal] | 0.0 | 0.0 | 0.0 | 0.0 | 0.0 | 0.0 | 0.0 | 0.0 | 0.0 nA and 15.0 nA and 30.0 nA (2×) and 10.0 nA and 40.0 nA (2×) and 50.0 nA (2×) and 60.0 nA | –
4 | CC/C=C\CCO [cis-3-hexen-1-ol] | 0.0 | 0.0 | 0.0 | 0.0 | 5.0 | 0.0 | 10.0 | 0.0 | 20.0 nA and 25.0 nA (2×) and 360.0 nA and 370.0 nA and 350.0 nA and 580.0 nA and 250.0 nA and 520.0 nA and 140.0 nA | response of OR15 to unitary compounds [2, 4]: additional responses
5 | CCCCCCO [1-hexanol] | 10.0 | 10.0 | 40.0 | 15.0 | 30.0 | 170.0 | 120.0 | 10.0 | 50.0 nA and 90.0 nA and 725.0 nA and 780.0 nA and 70.0 nA and 670.0 nA and 1070.0 nA and 580.0 nA and 740.0 nA and 275.0 nA | Raw Data, concentration-response ([2]; 1e-7 M, individual oocytes 1-10): 60.0 (2×) and 50.0 (2×) and 70.0 and 55.0 and 40.0 and 75.0 and 15.0 and 35.0; Raw Data, concentration-response ([2]; 5e-7 M, individual oocytes 1-10): 160.0 (2×) and 155.0 and 230.0 and 165.0 and 140.0 and 60.0; Raw Data, concentration-response ([2]; 1e-6 M, individual oocytes 1-10): 180.0 and 350.0 and 220.0 (2×) and 365.0 and 90.0 and 160.0; Raw Data, concentration-response ([2]; 5e-6 M, individual oocytes 1-10): 360.0 and 450.0 and 465.0 and 645.0 and 445.0 and 395.0 and 590.0 and 415.0 and 190.0 and 310.0; Raw Data, concentration-response ([2]; 1e-5 M, individual oocytes 1-10): 410.0 and 480.0 and 510.0 and 730.0 and 495.0 and 435.0 and 655.0 and 450.0 and 360.0; Raw Data, concentration-response ([2]; 5e-5 M, individual oocytes 1-10): 440.0 and 510.0 and 525.0 and 770.0 and 515.0 and 455.0 and 665.0 and 475.0 and 370.0; Raw Data, concentration-response ([2]; 0.0001 M, individual oocytes 1-10): 330.0 and 470.0 and 400.0 and 665.0 and 440.0 and 350.0 and 460.0 and 370.0 and 200.0 and 280.0; EC50 ([2]; AaegOR15/Orco expressing oocytes, TEVC, concentration-response of normalized current): ~1070 nM and 1070 nM; Raw data (Responses in nA), phenethyl propionate versus 1-hexanol [2]: 30.0 nA and 100.0 nA and 180.0 nA and 120.0 nA and 110.0 nA and 90.0 nA and 95.0 nA
6 | CCCCCC=O [hexanal] | – | – | – | – | – | – | – | – | 0.0 nA (2×) and 10.0 nA and 80.0 nA and 85.0 nA and 110.0 nA (2×) and 160.0 nA and 115.0 nA and 40.0 nA | –
7 | C=CC(C)(O)CCC=C(C)C (racemic) [(+/-)-linalool] | – | – | – | – | – | – | – | – | 0.0 nA (2×) and 5.0 nA and 10.0 nA (4×) and 20.0 nA and 40.0 nA and 15.0 nA | Normalized response, compounds of blend Alcohols 2, Average ([2]; unitary compounds of Alcohols 2, average of 10 oocytes, 1-hexanol = 100): 2.4; Normalized response, compounds of blend Alcohols 2 ([2]; unitary compounds of Alcohols 2, individual oocytes 1-10, normalized to the largest response of each oocyte (1-hexanol = 100)): 0.0 (2×) and 1.4 and 1.3 and 1.5 and 1.9 and 1.7 and 5.4 and 5.5 and 5.6
8 | CCC(=O)OCCc1ccccc1 [phenethyl propionate] | – | – | – | – | – | – | – | – | – | response of OR15 to unitary compounds [2, 4]: additional responses; Secondary Ligand ([2]; AaegOR15, secondary ligand identified during the functional characterizations): phenethyl propionate; Normalized response, phenethyl propionate, Average ([2]; average of 7 oocytes, relative to 1-hexanol): 56.0; Raw data (Responses in nA), phenethyl propionate versus 1-hexanol [2]: 10.0 nA and 100.0 nA and 90.0 nA and 70.0 nA (2×) and 40.0 nA (2×)
